According to ChEMBL document CHEMBL4052785, “Discovery of (R)-5-(benzo[d][1,3]dioxol-5-yl)-7-((1-(vinylsulfonyl)pyrrolidin-2-yl)methyl)-7H-pyrrolo[2,3-d]pyrimidin-4-amine (B6) as a potent Bmx inhibitor for the treatment of NSCLC” (Bioorg Med Chem Lett, 2017):

What was measured:
[1] = molecular target: Proto-oncogene tyrosine-protein kinase receptor Ret (Homo sapiens, UniProt P07949); assay: Inhibition of recombinant human N-terminal GST-tagged RET (658 to end residues) expressed in baculovirus Sf21 insect cells preincubated for 5 mins followed by biotinyl-beta Abeta Abeta AAEEEEYFELVAKKK substrate addition after 30 to 60 mins in presence of ATP by fluorescence assay
Proto-oncogene tyrosine-protein kinase receptor Ret, sequence (P07949 whole entry): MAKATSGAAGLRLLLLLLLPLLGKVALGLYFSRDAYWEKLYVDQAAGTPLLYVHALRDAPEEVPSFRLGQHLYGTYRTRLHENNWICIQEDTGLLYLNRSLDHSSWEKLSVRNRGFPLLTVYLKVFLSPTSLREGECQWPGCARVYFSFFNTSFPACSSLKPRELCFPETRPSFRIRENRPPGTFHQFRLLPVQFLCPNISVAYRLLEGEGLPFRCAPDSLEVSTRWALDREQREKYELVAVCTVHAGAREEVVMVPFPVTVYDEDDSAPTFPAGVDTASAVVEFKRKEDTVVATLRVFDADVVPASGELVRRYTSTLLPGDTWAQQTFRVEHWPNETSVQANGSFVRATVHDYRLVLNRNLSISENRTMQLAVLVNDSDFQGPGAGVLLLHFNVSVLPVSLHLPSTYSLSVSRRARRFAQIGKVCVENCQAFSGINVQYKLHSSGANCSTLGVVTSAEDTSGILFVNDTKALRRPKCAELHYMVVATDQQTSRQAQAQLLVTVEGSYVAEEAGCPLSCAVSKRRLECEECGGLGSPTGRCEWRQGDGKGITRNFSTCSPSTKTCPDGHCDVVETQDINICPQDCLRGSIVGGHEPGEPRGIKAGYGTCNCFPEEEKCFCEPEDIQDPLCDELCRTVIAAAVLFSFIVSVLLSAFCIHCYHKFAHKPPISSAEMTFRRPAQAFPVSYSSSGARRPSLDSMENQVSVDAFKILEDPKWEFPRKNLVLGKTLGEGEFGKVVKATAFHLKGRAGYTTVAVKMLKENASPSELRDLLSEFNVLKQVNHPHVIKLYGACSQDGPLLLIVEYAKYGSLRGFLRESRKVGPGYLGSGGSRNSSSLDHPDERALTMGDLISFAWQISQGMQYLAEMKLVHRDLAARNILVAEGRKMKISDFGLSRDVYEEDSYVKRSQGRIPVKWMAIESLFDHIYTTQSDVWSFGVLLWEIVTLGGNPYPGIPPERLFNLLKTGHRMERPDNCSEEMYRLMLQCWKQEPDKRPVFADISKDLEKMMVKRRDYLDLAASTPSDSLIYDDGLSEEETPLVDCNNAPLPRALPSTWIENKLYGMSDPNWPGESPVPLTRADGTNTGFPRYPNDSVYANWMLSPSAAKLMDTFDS

[2] = molecular target: Serine/threonine-protein kinase PLK1 (Homo sapiens, UniProt P53350); assay: Inhibition of recombinant human N-terminal His6-tagged PLK1 expressed in baculovirus Sf21 insect cells preincubated for 5 mins followed by substrate addition after 30 to 60 mins in presence of ATP by fluorescence assay
HCC827 = assay: Antiproliferative activity against human HCC827 cells harboring EGFR Del19 mutant after 72 hrs by MTT assay; assay type: functional, cell-based; details: HCC827, 72 h
[3] = molecular target: Cytoplasmic tyrosine-protein kinase BMX (Homo sapiens, UniProt P51813); assay: Inhibition of recombinant human full length N-terminal His6-tagged BMX expressed in Sf21 cells preincubated for 5 mins followed by biotinyl-beta Abeta Abeta AEEEPQYEEIPIYLELLP substrate addition after 30 to 60 mins in presence of ATP by fluorescence assay
[4] = molecular target: Epidermal growth factor receptor (Homo sapiens, UniProt P00533); assay: Inhibition of recombinant human N-terminal GST-tagged EGFR (696 to end residues) expressed in baculovirus Sf21 insect cells preincubated for 5 mins followed by substrate addition after 30 to 60 mins in presence of ATP by fluorescence assay
[5] = molecular target: Dual specificity mitogen-activated protein kinase kinase 7 (Homo sapiens, UniProt O14733); assay: Inhibition of recombinant human N-terminal GST-tagged MKK7beta (2 to end residues) expressed in Escherichia coli preincubated for 5 mins followed by substrate addition after 30 to 60 mins in presence of ATP by fluorescence assay
Dual specificity mitogen-activated protein kinase kinase 7, sequence (O14733 whole entry): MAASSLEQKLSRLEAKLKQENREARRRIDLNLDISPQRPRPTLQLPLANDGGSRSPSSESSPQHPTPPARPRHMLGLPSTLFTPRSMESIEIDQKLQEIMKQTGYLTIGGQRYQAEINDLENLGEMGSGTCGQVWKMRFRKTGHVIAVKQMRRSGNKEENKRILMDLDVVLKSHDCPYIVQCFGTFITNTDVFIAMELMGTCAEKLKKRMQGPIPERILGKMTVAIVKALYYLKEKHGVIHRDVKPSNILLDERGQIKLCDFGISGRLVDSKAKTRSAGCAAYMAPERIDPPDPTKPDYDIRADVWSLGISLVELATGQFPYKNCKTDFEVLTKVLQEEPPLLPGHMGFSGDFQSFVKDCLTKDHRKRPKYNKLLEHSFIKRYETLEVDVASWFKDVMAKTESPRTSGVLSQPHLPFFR

[6] = molecular target: Tyrosine-protein kinase Blk (Homo sapiens, UniProt P51451); assay: Inhibition of BLK (unknown origin) preincubated for 5 mins followed by substrate addition after 30 to 60 mins in presence of ATP by fluorescence assay
Tyrosine-protein kinase Blk, sequence (P51451 whole entry): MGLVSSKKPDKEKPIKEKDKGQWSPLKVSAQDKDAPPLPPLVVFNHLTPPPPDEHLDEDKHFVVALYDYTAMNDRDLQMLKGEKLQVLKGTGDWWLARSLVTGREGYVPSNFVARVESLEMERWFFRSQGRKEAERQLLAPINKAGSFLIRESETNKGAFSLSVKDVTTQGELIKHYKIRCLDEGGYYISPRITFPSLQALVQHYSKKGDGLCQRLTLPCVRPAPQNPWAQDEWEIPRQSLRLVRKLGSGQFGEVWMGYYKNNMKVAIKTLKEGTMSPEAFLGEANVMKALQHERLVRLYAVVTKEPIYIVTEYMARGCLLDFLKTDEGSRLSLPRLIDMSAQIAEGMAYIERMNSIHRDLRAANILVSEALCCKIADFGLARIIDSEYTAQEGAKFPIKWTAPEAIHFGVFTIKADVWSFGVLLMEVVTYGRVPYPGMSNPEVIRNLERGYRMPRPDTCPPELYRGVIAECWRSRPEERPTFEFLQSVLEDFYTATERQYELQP

[7] = molecular target: Tyrosine-protein kinase Lck (Homo sapiens, UniProt P06239); assay: Inhibition of recombinant human full length N-terminal His6-tagged LCK expressed in Sf21 insect cells preincubated for 5 mins followed by substrate addition after 30 to 60 mins in presence of ATP by fluorescence assay
Tyrosine-protein kinase Lck, sequence (P06239 whole entry): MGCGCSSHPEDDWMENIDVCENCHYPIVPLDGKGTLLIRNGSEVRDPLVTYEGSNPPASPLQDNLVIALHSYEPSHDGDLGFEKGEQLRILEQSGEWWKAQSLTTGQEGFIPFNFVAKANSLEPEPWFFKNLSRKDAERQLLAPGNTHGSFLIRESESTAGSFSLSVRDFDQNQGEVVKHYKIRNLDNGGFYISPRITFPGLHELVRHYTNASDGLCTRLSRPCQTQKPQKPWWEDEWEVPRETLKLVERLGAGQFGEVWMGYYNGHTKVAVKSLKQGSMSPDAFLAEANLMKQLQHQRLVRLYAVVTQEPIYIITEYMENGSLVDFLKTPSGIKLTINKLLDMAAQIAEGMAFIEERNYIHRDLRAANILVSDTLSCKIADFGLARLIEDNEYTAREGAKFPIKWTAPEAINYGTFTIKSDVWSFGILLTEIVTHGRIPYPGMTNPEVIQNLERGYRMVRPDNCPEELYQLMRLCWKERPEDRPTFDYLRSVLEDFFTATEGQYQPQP

[8] = molecular target: Proto-oncogene tyrosine-protein kinase Src (Homo sapiens, UniProt P12931); assay: Inhibition of recombinant human full length N-terminal His6-tagged SRC expressed in Sf21 insect cells preincubated for 5 mins followed by substrate addition after 30 to 60 mins in presence of ATP by fluorescence assay
Proto-oncogene tyrosine-protein kinase Src, sequence (P12931 2-536 limits assumed): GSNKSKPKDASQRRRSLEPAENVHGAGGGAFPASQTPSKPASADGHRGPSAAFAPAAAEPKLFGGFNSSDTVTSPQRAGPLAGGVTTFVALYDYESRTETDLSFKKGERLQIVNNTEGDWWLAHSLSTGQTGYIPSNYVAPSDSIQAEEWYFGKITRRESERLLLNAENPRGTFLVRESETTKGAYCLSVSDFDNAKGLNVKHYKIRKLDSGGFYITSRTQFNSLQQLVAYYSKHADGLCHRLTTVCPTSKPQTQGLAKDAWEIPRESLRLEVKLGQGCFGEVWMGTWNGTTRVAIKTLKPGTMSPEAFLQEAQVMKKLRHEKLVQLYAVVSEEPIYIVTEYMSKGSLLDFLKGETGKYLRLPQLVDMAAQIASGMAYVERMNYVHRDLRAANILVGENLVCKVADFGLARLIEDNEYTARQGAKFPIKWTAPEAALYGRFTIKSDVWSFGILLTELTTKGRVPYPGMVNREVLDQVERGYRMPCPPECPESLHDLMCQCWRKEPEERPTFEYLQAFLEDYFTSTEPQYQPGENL

[9] = molecular target: Tyrosine-protein kinase HCK (Homo sapiens, UniProt P08631); assay: Inhibition of recombinant human N-terminal His6-tagged HCK (230 to 497 residues) expressed in baculovirus Sf21 insect cells preincubated for 5 mins followed by substrate addition after 30 to 60 mins in presence of ATP by fluorescence assay
Tyrosine-protein kinase HCK, sequence (P08631 whole entry, the tested form may be a part): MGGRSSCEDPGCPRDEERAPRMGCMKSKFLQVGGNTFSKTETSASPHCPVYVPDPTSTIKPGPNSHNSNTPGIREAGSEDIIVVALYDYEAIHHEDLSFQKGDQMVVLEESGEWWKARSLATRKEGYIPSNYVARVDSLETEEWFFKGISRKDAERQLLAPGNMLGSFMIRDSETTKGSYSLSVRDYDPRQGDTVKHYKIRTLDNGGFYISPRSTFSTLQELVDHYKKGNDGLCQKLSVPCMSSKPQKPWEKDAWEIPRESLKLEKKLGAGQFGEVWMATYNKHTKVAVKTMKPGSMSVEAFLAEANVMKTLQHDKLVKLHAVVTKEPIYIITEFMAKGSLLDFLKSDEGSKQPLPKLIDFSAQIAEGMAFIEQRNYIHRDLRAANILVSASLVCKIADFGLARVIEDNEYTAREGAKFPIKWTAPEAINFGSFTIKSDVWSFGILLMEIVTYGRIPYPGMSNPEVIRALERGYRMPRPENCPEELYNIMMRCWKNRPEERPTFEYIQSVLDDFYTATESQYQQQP

[10] = molecular target: Protein-tyrosine kinase 6 (Homo sapiens, UniProt Q13882); assay: Inhibition of recombinant human full length N-terminal His6-tagged BRK expressed in baculovirus Sf21 insect cells preincubated for 5 mins followed by substrate addition after 30 to 60 mins in presence of ATP by fluorescence assay
Protein-tyrosine kinase 6, sequence (Q13882 whole entry): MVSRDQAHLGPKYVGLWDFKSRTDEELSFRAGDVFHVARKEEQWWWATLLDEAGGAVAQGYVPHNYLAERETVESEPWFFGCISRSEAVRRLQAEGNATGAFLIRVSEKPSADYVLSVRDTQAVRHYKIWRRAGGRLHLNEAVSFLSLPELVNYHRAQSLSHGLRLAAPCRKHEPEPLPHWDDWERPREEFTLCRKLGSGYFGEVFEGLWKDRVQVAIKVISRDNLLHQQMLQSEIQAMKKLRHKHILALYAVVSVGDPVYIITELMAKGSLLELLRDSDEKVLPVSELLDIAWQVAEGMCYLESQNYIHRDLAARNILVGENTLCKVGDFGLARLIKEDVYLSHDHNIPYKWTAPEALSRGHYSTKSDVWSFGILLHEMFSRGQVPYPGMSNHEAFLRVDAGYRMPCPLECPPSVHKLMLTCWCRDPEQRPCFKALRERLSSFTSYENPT

[11] = molecular target: Receptor-type tyrosine-protein kinase FLT3 (Homo sapiens, UniProt P36888); assay: Inhibition of recombinant human N-terminal GST-tagged FLT3 (564 to end residues) expressed in expressed in Sf21 cells preincubated for 5 mins followed by substrate addition after 30 to 60 mins in presence of ATP by fluorescence assay
Receptor-type tyrosine-protein kinase FLT3, sequence (P36888 whole entry): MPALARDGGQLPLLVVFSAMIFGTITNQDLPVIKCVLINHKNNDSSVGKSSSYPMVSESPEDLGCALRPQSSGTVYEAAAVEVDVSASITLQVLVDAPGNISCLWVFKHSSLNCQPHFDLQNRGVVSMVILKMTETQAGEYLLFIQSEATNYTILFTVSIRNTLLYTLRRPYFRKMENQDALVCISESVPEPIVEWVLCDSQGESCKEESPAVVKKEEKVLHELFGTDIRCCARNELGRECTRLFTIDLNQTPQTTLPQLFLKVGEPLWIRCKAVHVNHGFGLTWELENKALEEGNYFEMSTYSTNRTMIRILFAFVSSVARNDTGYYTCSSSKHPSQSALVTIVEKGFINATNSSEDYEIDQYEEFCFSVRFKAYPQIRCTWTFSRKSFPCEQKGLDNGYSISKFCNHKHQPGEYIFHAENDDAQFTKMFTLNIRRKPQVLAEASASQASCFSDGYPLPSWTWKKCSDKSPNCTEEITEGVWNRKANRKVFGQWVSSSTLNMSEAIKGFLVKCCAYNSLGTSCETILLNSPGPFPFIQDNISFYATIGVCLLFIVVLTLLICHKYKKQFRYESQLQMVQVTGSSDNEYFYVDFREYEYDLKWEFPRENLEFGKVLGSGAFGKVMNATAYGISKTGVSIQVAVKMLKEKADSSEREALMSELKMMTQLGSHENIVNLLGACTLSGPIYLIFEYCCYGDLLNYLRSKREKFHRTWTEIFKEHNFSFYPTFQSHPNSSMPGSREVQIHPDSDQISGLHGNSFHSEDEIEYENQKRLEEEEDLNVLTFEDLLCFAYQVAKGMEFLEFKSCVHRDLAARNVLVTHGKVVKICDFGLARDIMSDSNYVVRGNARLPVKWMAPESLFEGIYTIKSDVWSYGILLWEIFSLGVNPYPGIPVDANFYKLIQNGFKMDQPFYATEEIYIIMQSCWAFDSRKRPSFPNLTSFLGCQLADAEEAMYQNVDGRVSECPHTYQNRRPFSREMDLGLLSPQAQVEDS

[12] = molecular target: Tyrosine-protein kinase JAK2 (Homo sapiens, UniProt O60674); assay: Inhibition of recombinant human C-terminal His6-tagged JAK2 (808 to end residues) expressed in baculovirus Sf21 insect cells preincubated for 5 mins followed by substrate addition after 30 to 60 mins in presence of ATP by fluorescence assay
[13] = molecular target: Serine/threonine-protein kinase Nek2 (Homo sapiens, UniProt P51955); assay: Inhibition of recombinant human full length N-terminal His6-tagged NEK2 expressed in baculovirus Sf21 insect cells preincubated for 5 mins followed by substrate addition after 30 to 60 mins in presence of ATP by fluorescence assay
Homo sapiens [14] = species: Homo sapiens; assay: Selectivity ratio of IC50 for recombinant human N-terminal His6-tagged TEC (174 to end residues) to IC50 for human full length N-terminal His6-tagged BMX
Homo sapiens [15] = species: Homo sapiens; assay: Selectivity ratio of IC50 for recombinant human N-terminal His6-tagged EGFR (696 to end residues) to IC50 for human full length N-terminal His6-tagged BMX
Homo sapiens [16] = species: Homo sapiens; assay: Selectivity ratio of IC50 for BLK (unknown origin) to IC50 for human full length N-terminal His6-tagged BMX
Homo sapiens [17] = species: Homo sapiens; assay: Selectivity ratio of IC50 for recombinant human full length N-terminal His6-tagged LCK to IC50 for human full length N-terminal His6-tagged BMX
Homo sapiens [18] = species: Homo sapiens; assay: Selectivity ratio of IC50 for recombinant human N-terminal His6-tagged HCK (230 to 497 residues) to IC50 for human full length N-terminal His6-tagged BMX
Homo sapiens [19] = species: Homo sapiens; assay: Selectivity ratio of IC50 for recombinant human N-terminal His6-tagged FRK (218 to end residues) to IC50 for human full length N-terminal His6-tagged BMX
Homo sapiens [20] = species: Homo sapiens; assay: Selectivity ratio of IC50 for recombinant human full length N-terminal GST-tagged CSK to IC50 for human full length N-terminal His6-tagged BMX
Homo sapiens [21] = species: Homo sapiens; assay: Selectivity ratio of IC50 for recombinant human N-terminal His6-tagged RIPK2 (1 to 299 residues) to IC50 for human full length N-terminal His6-tagged BMX
Homo sapiens [22] = species: Homo sapiens; assay: Selectivity ratio of IC50 for recombinant human N-terminal His6-tagged FMS (538 to end residues) to IC50 for human full length N-terminal His6-tagged BMX
Homo sapiens [23] = species: Homo sapiens; assay: Selectivity ratio of IC50 for recombinant human N-terminal His6-tagged FER (541 to end residues) to IC50 for human full length N-terminal His6-tagged BMX
Homo sapiens [24] = species: Homo sapiens; assay: Selectivity ratio of IC50 for recombinant human full length N-terminal His6-tagged SYK to IC50 for human full length N-terminal His6-tagged BMX
Homo sapiens [25] = species: Homo sapiens; assay: Selectivity ratio of IC50 for recombinant human C-terminal His6-tagged JAK2 (808 to end residues) to IC50 for human full length N-terminal His6-tagged BMX
Homo sapiens [26] = species: Homo sapiens; assay: Selectivity ratio of IC50 for human PDGFRalpha to IC50 for human full length N-terminal His6-tagged BMX
Homo sapiens [27] = species: Homo sapiens; assay: Selectivity ratio of IC50 for recombinant human N-terminal His6-tagged PLK1 to IC50 for human full length N-terminal His6-tagged BMX
Mus musculus = assay: Toxicity in nude mouse xenografted with human NCI-H1975 cells assessed as adverse effects at 25 mg/kg administered qd via oral gavage for 18 days measured on day 14; assay type: organism-based; details: in vivo, 432 h

C=CS(=O)(=O)N1CCC[C@@H]1Cn1cc(-c2ccc3c(c2)OCO3)c2c(N)ncnc21
IC50 [1]: 89.5 nM | IC50 [2]: > 10000 nM | IC50 (HCC827): 14 nM | IC50 [3]: 35.7 nM | IC50 [4]: 643 nM | IC50 [5]: 189 nM | IC50 [6]: 76.4 nM | IC50 [7]: 195 nM | IC50 [8]: 197 nM | IC50 [9]: 199 nM | IC50 [10]: 220 nM | IC50 [11]: 3280 nM | IC50 [12]: > 10000 nM | IC50 [13]: > 10000 nM | Ratio IC50 (Homo sapiens [14]): 3.1 | Ratio IC50 (Homo sapiens [15]): 18 | Ratio IC50 (Homo sapiens [16]): 2.1 | Ratio IC50 (Homo sapiens [17]): 5.5 | Ratio IC50 (Homo sapiens [18]): 5.6 | Ratio IC50 (Homo sapiens [19]): 14.3 | Ratio IC50 (Homo sapiens [20]): 79.2 | Ratio IC50 (Homo sapiens [21]): 11.3 | Ratio IC50 (Homo sapiens [22]): 114 | Ratio IC50 (Homo sapiens [23]): 166 | Ratio IC50 (Homo sapiens [24]): > 280 | Ratio IC50 (Homo sapiens [25]): > 280 | Ratio IC50 (Homo sapiens [26]): > 280 | Ratio IC50 (Homo sapiens [27]): > 280 | Activity (Mus musculus): Non-Toxic
